# Measured values reported in paper PMC6934184, “Selective DNA-PKcs inhibition extends the therapeutic index of localized radiotherapy and chemotherapy” (The Journal of Clinical Investigation, 2019).
# Biological target: T1, PI4KB (PI4K beta) (Homo sapiens, UniProt Q9UBF8)
# T1 construct: purchased Thermo Fisher Scientific (Life Technologies) SelectScreen
# Experiment: SelectScreen Adapta
# Type: biochemical
# Method in brief: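 Percent values come from Thermo SelectScreen profiling of NU5455, combining activity and binding assays. CSF1R was run in Z'LYTE format at Km app ATP, and CAMK1 in Adapta format with ATP listed at 10.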
# T1 sequence (Q9UBF8 whole entry): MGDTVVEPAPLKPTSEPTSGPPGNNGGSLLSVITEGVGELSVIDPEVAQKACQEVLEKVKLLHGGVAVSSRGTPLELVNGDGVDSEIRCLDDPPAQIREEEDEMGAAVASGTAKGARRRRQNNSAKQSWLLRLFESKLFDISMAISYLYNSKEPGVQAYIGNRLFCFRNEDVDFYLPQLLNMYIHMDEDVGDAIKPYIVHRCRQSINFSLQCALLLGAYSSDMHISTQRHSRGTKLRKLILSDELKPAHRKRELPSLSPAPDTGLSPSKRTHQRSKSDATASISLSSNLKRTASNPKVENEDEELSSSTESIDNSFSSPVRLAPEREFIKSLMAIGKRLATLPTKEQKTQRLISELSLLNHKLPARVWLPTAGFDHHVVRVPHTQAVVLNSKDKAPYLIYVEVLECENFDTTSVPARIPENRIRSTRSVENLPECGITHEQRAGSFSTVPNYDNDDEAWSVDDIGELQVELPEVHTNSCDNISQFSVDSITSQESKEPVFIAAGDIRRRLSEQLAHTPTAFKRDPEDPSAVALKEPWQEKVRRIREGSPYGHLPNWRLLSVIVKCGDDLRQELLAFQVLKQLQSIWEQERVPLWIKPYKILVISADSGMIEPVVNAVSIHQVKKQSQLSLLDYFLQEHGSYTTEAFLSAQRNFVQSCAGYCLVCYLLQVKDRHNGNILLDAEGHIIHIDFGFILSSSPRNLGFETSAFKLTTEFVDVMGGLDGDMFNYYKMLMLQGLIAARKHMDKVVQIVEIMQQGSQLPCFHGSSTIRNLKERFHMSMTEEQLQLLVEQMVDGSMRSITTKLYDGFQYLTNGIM
compound,measurement,value
CN(C(=O)CN1CCOCC1)c1ccc2sc3c(-c4cccc5c(=O)cc(N6CC7CCC(C6)O7)oc45)cccc3c2c1 [NU5455],inhibition at 1 µM,-4.7%
